Like-named read-outs stand apart in the source and are kept apart here.
What was measured:
[1] = severe conditions (60°C), airtight glass vial, excipient mixed 1:1
Description: 1 g of pregabalin and each 1 g of the excipients given in Table 14 were mixed at room temperature, and the mixture in the form of powder was air-tightened in a glass vial, and this vial was stored under severe conditions (60° C.) for 2 weeks, and then a percentage (%) of lactam related compounds (PRG-Lactam) relative to the main peak was calculated by HPLC. The analysis wavelength was 210 nm, a mixture (0.04 M ammonium phosphate ((NH4)2HPO4) buffer solution:acetonitrile:methanol=84:5:11) containing 5 mM sodium 1-octanesulfonate used as a mobile phase A, and acetonitrile was used as a mobile phase B. The mobile phase A was maintained at 100% for initial 6 minutes, and the m phase A was maintained from 100% to 70% and the mobile phase B was maintained from 0% to 30% for 6˜45 minutes, and then the mobile phase A was maintained at 70% and the mobile phase B was maintained at 0% for 45˜50 minutes. Post time was 10 minutes. A flow rate was adjusted (0.9 min/mL) so that a retention time of pregabalin was about 8 minutes. A column was a stainless steel column having an internal diameter of about 4.6 mm and a length of about 250 mm, packed with 5 μm-octadecylsilyl silica gel for liquid chromatography.

[2] = cited from earlier work

## CC(C)C[C@H](CN)CC(=O)O [Pregabalin, (S)-3-(aminomethyl)-5-methylhexanoic acid]
[1]; 0 weeks
  % of Peak area of PRG-Lactam relative to peak area of pregabalin: 0.074%
[1]; 1 week
  % of Peak area of PRG-Lactam relative to peak area of pregabalin: 0.196%
[1]; 2 weeks
  % of Peak area of PRG-Lactam relative to peak area of pregabalin: 0.329%
[2]; after administration
  Time to steady-state blood levels: 24˜48 hours
[2]; in vivo
  Average absorption time: 6 h
[2]; normal person
  Half-life: about 6 hours
[2]; oral immediate release
  Time to reach peak blood levels: ≤ 1.5 h

— patent US20170172929A1, “PHARMACEUTICAL COMPOSITION CONTAINING PREGABALIN WITH IMPROVED STABILITY AND METHOD FOR PREPARING SAME” (Yungjin Pharm. Co., Ltd., priority 2014, published 2017)
